Consider 3 compounds from patent US12329801B2, “Regenerative polypeptides and uses thereof” (JUVENA THERAPEUTICS, INC., priority 2021, dated 2025).

Data set [1] can be described thus: Murine pharmacokinetics, intravenous, ELISA, non-compartment analysis. The data set is classed as in vivo, mice. The conditions noted are these: mice. The procedure: Murine pharmacokinetics (PK) represents the absorption, distribution, metabolism, and elimination of drugs from the body. The pharmacokinetic profile of the therapeutic polypeptides were determined in mice (10-12 weeks old). Mice were fed ad libitum and housed under controlled conditions of lighting (12-hour light/12-hour dark) and temperature (22-24° C.). Mice were allowed to acclimate for 3 days prior to the initiation of the experiment. Intravenous (IV) injection in 10-12 weeks old mice. Engineered mitogenic polypeptides concentrations in the samples were measured by ELISA. Various pharmacokinetics will be calculated as well as the absorption/elimination dynamics following different routes of administration.
In general terms: ELISA stands for enzyme-linked immunosorbent assay.

Data set [2] relates to healthy human muscle precursors from person. In words: In vitro myogenesis assay, healthy human muscle precursors. Type of data set: cell-based. The method, then: (§1) Human muscle progenitor cells (early passage myoblasts) were cultured and expanded in growth medium: Ham's F-10 (Gibco), 20% Bovine Growth Serum (Hyclone), 5 ng/mL FGF2 and 1% penicillin-streptomycin on Matrigel coated plates (1:300 matrigel: PBS), at 37° C. and 5% CO2. For experimental conditions, cells were plated at 40,000 cells/well on Matrigel coated 8-well chamber slides in 250-500 μL medium per well (1:100 matrigel: PBS) in human fusion medium: DMEM (Gibco)+2% horse serum (Hyclone). One hour after plating, human myoblasts were treated with 50% respective media: […] myoblasts were cultured for 24 hours in the above conditions, at 37° C. in 10% CO2 incubator. BrdU (300 uM) in DMSO was added for 2 hours prior to fixation with cold 70% ethanol and stored at 4° C. until staining.
(§2) Following permeabilization in PBS+0.25% t-Octylphenoxypolyethoxyethanol (Triton™ X-100), antigen retrieval was performed. Primary staining was performed with primary antibodies including: a species-specific monoclonal antibody for mouse anti-embryonic Myosin Heavy Chain (eMyHC, hybridoma clone 1.652, Developmental Studies Hybridoma Bank) and Rat-anti-BrdU (Abcam Inc. ab6326). […]

For data set [3], the system named is human DM1 muscle precursors from person. In words: In vitro myogenesis assay, human DM1 muscle precursors. Type of data set: cell-based. The conditions noted are these: across a range of test article concentrations. The method, then:
as §1, §2

Data set [4] has as its system female C57/BL6 (NIA) mice (20 months of age). In words: Acute injury model (cardiotoxin in tibialis anterior). Type of data set: in vivo. The conditions noted are these: IM 0.4 ug/20 μL every other day, vs vehicle (HSA). The method, then:
The acute injury model of Example 18 was used. […] female C57/BL6 (NIA) mice (20 months of age) were injected intramuscularly (IM) in each tibialis anterior with cardiotoxin at day one (10 ug/20 μL) and from day two the mice were given IM injections every other day with 0.4 ug/20 μL of 6HIS-HSA-IGF2R61A (SEQ ID NO: 34) or vehicle (0.4 ug/20 μL of HSA).

For another data set, the system named is DM1 human myoblast. In words: Myogenic gene expression fold change in DM1 human myoblast. Type of data set: cell-based. The conditions noted are these: 48 h; BMP7 50 ng/mL, Butyrate 100 nM, IGF2 200 ng/mL. The procedure:
Myoblasts were cultured 48 h in the presence of factors (BMP7 50 ng/mL, Butyrate 100 nM, IGF2 200 ng/mL).
Myoblasts were cultured 96 h in the presence of factors (IGF2 200 ng/ml). […] Myoblasts were cultured 48 h in the presence of factors (IGF2 200 ng/mL).
IGF2 was tested individually for its ability to promote proliferation and/or fusion of human muscle progenitor cells from an individual with myotonic dystrophy type 1 (hMD)—a muscular dystrophy caused by mutations in the DMPK1 gene. The effect of IGF2 on myogenic activity was assayed in biological triplicate across a range of concentrations centered around expected physiological levels by adding each factor to hMD myoblasts for 72 hours with daily media changes (DMEM +2% horse serum) and a second pulse of factors at the first media change. After 72 or 96 hours, cells were pulsed for 2-5 hours with EdU (30 uM), ethanol fixed, stained with Hoescht 3342, immunostained for proliferation—as measured by the percent of cells staining positive for EdU (% EdU)-, and immunostained for differentiation—as measured by the increase in cellular area staining positive for embryonic myosin heavy chain (% eMyHC) relative to the negative controls, which received media and vehicle only. Wells were imaged on a Keyence BZ-100 at 4×, the images quantified in Cell Profiler, and the statistics were computed in R. Additionally, RNA was extracted from myoblast and select transcript abundances quantified by qPCR.

The next data set concerns human myoblast cells. In words: Differentiation of human myoblast cells (MyHC immunostaining, percentage area). The data set is classed as cell-based. The conditions noted are these: Fc4 fusions, 96 hours with daily media change, concentration not printed (FIG. 1B). The method, then:
FIG. 1A: The suspension CHO cells were transiently transfected with the IGF2-hFcm encoding plasmid. IGF2-hFcm was affinity-purified by Protein A membrane column. The purified IGF2-hFcm was added into the culture of human myoblast cells for 96 hours. Myosin heavy chain (MyHC) was immunostained and imaged by a fluorescence microscope.
FIG. 1B: The suspension CHO cells were transiently transfected with the IGF2-LhFc4 encoding plasmid. IGF2-LhFc4 was affinity-purified by Protein A membrane column. The purified IGF2-LhFc4 was added into the culture of human myoblast cells for 96 hours with daily media change. Myosin heavy chain (MyHC) was immunostained and imaged by a fluorescence microscope.
FIG. 2A: The suspension CHO cells were transiently transfected with the HSA-L-IGF2R61A encoding plasmid. HSA-L-IGF2R61A was affinity-purified by Protein A membrane column. […] Myosin heavy chain (MyHC) was immunostained and imaged by a fluorescence microscope.
Suspension CHO cells were transiently transfected with the IGF2-hFcm encoding plasmid. […] After quantification of the stained MyHC, the percentage area of MyHC was calculated as the percent of pixels within the field that are illuminated above background in the stained channel. […] Significance was determined by a p-value less than 0.05 by the one-way ANOVA Tukey Honest Significant Difference test.

Take “HSA-IGF2R61A: His tagged HSA fusion IGF2 R61A mutant with a long linker, SEQ ID NO: 34”: in data set [1], the “serum half-life compared to the natural sequence of IGF2” value was “significantly improved serum half-life”. In addition, the “activity relative to IGF2 at equimolar concentrations” value in data set [2] (across a range of test article concentrations) is reported as “equal activity”. Further, the “activity relative to HSA-IGF2 at equimolar concentrations” value in data set [2] (before or after size exclusion purification via HPLC) is given as “equal or increased activity”. For the same compound, in data set [3], the “activity relative to IGF2 at equimolar concentrations” value is on record as “equal activity”. Also, in data set [4], the “force production (max contraction rate)” value is recorded as “increased force production”, the “force production (specific force-frequency)” value is given as “increased force production”, the “muscle fatigue (specific fatigue index)” value is on record as “reduced muscle fatigue” and the muscle mass result was “increased muscle mass”. Moreover, in data set [4], the “regenerative index (number of new fibers per square millimeter)” value is “increased regenerative index” and the relation rates entry is on record as “improved relation rates”.
Consider `CCCC(=O)[O-].[Na+]` [NaBut, sodium butyrate], for which, in the data set on DM1 human myoblast, the “MYF5 expression fold change compared to FM (vehicle)” value is reported as 1.128, the “MYOD1 expression fold change compared to FM (vehicle)” value amounted to 1.095 and the “MYOG expression fold change compared to FM (vehicle)” value was 1.020.
As to “IGF2-hFc4: Human IGF2-hFc4, SEQ ID NO: 39”, the “% MyHC” value in the data set with human myoblast cells was 6.901%.
